Source: ChEMBL document CHEMBL4406850, “Review about the multi-target profile of resveratrol and its implication in the SGK1 inhibition” (Eur J Med Chem, 2019)
Calls of active or inactive are those of the source. No cut-off for these calls is given here.

Legend:
[1] = molecular target: T1, Serine/threonine-protein kinase Sgk1 (Homo sapiens) (UniProt O00141); test: Inhibition of recombinant human N-terminal His-tagged SGK1 using (GRPRTSSFAEGKK) peptide as substrate incubated for 30 mins in presence of [32P] gamma ATP by scintillation counter method
T1 sequence (whole entry): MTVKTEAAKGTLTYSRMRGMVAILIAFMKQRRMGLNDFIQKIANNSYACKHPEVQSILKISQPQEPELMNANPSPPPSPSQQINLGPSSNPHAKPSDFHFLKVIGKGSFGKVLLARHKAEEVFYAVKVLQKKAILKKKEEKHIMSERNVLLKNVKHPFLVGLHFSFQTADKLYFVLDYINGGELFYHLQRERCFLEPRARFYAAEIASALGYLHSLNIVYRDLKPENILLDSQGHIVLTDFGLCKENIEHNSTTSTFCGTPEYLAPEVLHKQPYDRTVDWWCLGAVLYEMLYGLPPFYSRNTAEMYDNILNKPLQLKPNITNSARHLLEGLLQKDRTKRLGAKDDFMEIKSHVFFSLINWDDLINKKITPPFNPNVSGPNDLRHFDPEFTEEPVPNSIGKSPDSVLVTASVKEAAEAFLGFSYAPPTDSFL

Huh-7 [2] = test: Induction of apoptosis in human HuH7 cells transfected with ShSGK1 assessed as late apoptosis at 100 uM incubated for 48 hrs by annexin V and 7-AAD staining based assay; assay type: functional, cell-based
[3] = molecular target: T1, Serine/threonine-protein kinase Sgk1 (Homo sapiens); test: Inhibition of recombinant human N-terminal His-tagged SGK1 at 50 uM using (GRPRTSSFAEGKK) peptide as substrate incubated for 30 mins in presence of [32P] gamma ATP by scintillation counter method
[4] = molecular target: T1, Serine/threonine-protein kinase Sgk1 (Homo sapiens); test: Inhibition of SGK1 in human HUH7 cells at 100 uM using peptide as substrate incubated for 6 hrs by scintillation counter method; assay type: cell-based
[5] = molecular target: T1, Serine/threonine-protein kinase Sgk1 (Homo sapiens); test: Inhibition of insulin-induced SGK1 in human HUH7 cells at 100 uM using peptide as substrate incubated for 6 hrs by scintillation counter method; assay type: cell-based
[6] = molecular target: T1, Serine/threonine-protein kinase Sgk1 (Homo sapiens); test: Inhibition of SGK1 in human HuH7 cells assessed as reduction in insulin-induced MDM2 phosphorylation on Ser166 at 100 uM incubated for 6 hrs by Western blot analysis; assay type: cell-based
Huh-7 [7] = test: Antiproliferative activity against human HuH7 cells assessed as reduction in cell viability at 100 uM incubated for 48 hrs by trypan blue dye based assay; assay type: functional
Huh-7 [8] = test: Induction of apoptosis in human HuH7 cells assessed as increase in early apoptotic cells at 100 uM incubated for 48 hrs by annexin V and 7-AAD staining based assay; assay type: functional, cell-based
Huh-7 [9] = test: Induction of apoptosis in human HuH7 cells assessed as increase in late apoptotic cells at 100 uM incubated for 48 hrs by annexin V and 7-AAD staining based assay; assay type: functional, cell-based
Huh-7 [10] = test: Induction of apoptosis in human HuH7 cells assessed as increase in necrotic cells at 100 uM incubated for 48 hrs by annexin V and 7-AAD staining based assay; assay type: functional, cell-based
Huh-7 [11] = test: Antiproliferative activity against human HuH7 cells transfected with ShSGK1 assessed as reduction in cell viability at 100 uM incubated for 48 hrs by trypan blue dye based assay; assay type: functional
Huh-7 [12] = test: Antiproliferative activity against human HuH7 cells overexpressing SGK1 assessed as reduction in cell viability at 100 uM incubated for 48 hrs by trypan blue dye based assay; assay type: functional
Huh-7 [13] = test: Antiproliferative activity against human HuH7 cells overexpressing EGFP assessed as reduction in cell viability at 100 uM incubated for 48 hrs by trypan blue dye based assay; assay type: functional
Huh-7 [14] = test: Induction of apoptosis in human HuH7 cells transfected with ShSGK1 assessed as early apoptosis at 100 uM incubated for 48 hrs by annexin V and 7-AAD staining based assay; assay type: functional, cell-based
Huh-7 [15] = test: Induction of apoptosis in human HuH7 cells overexpressing SGK1 at 100 uM incubated for 48 hrs by annexin V and 7-AAD staining based assay; assay type: functional, cell-based
Huh-7 [16] = test: Induction of apoptosis in human HuH7 cells overexpressing EGFP at 100 uM incubated for 48 hrs by annexin V and 7-AAD staining based assay; assay type: functional, cell-based

inhibition [1]: Dose-dependent effect
inhibition [3]: 50%
inhibition [4]: inactive
inhibition [5]: Active
inhibition [6]: Active
SMILES: Oc1ccc(/C=C/c2cc(O)cc(O)c2)cc1
Activity (Huh-7 [2]): Active
Activity (Huh-7 [7]): Active
Activity (Huh-7 [8]): Active
Activity (Huh-7 [9]): Active
Activity (Huh-7 [10]): Active
Activity (Huh-7 [11]): Active
Activity (Huh-7 [12]): inactive
Activity (Huh-7 [13]): Active
Activity (Huh-7 [14]): Active
Activity (Huh-7 [15]): inactive
Activity (Huh-7 [16]): Active
